# US9271993B2, “Treatment of bacterial infectious diseases” (priority 2010, dated 2016)
# Like-named read-outs stand apart in the source and are kept apart here.
# Assays:
# bacterial ribosomes = experiment: Ribosomal drug susceptibility (MIC) of recombinant bacteria; parameters: MIC, bacterial ribosomes: unit not given beside the values; settings: for MIC, wild type bacteria: Table 10
# cytohybrid ribosomes = experiment: as above; parameters: MIC, cytohybrid ribosomes: unit not given beside the values; settings: for MIC, bacteria with cytohybrid ribosome: Table 10
# mitohybrid ribosomes = experiment: as above; parameters: MIC, mitohybrid ribosomes: unit not given beside the values; settings: for MIC, bacteria with mitohybrid ribosome: Table 10
# E. coli = experiment: MIC against gram-negative bacteria; type: cell-based
# Text: Agents Chemother. 2003, 47:1496-1502.
# [1] = system: clinical methicillin resistant Staphylococcus aureus (MRSA) isolates; experiment: MIC against clinical MRSA isolates, LB microdilution assay
# Procedure: Activity was assessed by determination of minimal inhibitory concentrations (MIC), as described in Pfister et al., Antimicrob. […] Cultures from single colonies were grown in LB medium and used for MIC tests in a microtiter plate format. Starting cultures contained 200 μl of bacterial cells at an optical density of 0.025 at 600 nm, and the respective drug was added in twofold series of dilution.
# [2] = system: Cochlear explants from newborn mice; experiment: Cochleatoxicity in vitro, hair cell loss in cochlear explants; type: cell-based
# Procedure: FIG. 1: Cochleatoxicity in vitro
# (a) Dose-response relationship of drug-induced hair cell loss in cochlear explants. Hair cell loss was quantified along the entire length of the explant and plotted against drug concentration. %=% outer hair cells missing.
# Cochlear explants from newborn mice were treated with 0.5 mM aminoglycoside compound for 24 h; subsequently hair cell damage was assessed by epifluorescence microscopy.
# [3] = Escherichia coli, E. coli AG02, clin. isol (Gm^S), read-out: MIC
# [4] = Escherichia coli, E. coli AG03, clin. isol (Gm^R), read-out: MIC
# [5] = Escherichia coli, E. coli AG06, BM13, read-out: MIC
# [6] = Escherichia coli, E. coli AG07, BM13/pIP135, resistance mechanism AAC(3), read-out: MIC
# [7] = Escherichia coli, E. coli AG08, BM13/pIP055, resistance mechanism ANT(2″), read-out: MIC
# [8] = Escherichia coli, E. coli AG09, AAC(6′)-1B, resistance mechanism AAC(6′), read-out: MIC
# [9] = Escherichia coli, E. coli AG36, HB101/pAT197, resistance mechanism ANT(4′), read-out: MIC
# [10] = Escherichia coli, E. coli AG37, HB101/pAG21-1, resistance mechanism APH(3′), read-out: MIC
# [11] = Staphylococcus aureus, MRSA, MRSA AG038, strain 70-26S Gm^S
# [12] = Staphylococcus aureus, MRSA, MRSA AG041, strain 98-25S Gm^S
# [13] = Staphylococcus aureus, MRSA, MRSA AG043, strain 01-08R Gm^R
# [14] = Staphylococcus aureus, MRSA, MRSA AG044, strain 07-12R Gm^R
# [15] = Staphylococcus aureus, MRSA, MRSA AG045, strain 08-12R Gm^R
# [16] = Staphylococcus aureus, MRSA, MRSA AG053, strain 56-06R Gm^R
compound,measurement,setting,value
CC(=O)O.CC(=O)O.CC(=O)O.CC(=O)O.CNC1C(OC2OC(CO)C(N)C(O)C2O)OC2CC(NC(=O)C(O)CCN3C(=O)c4ccccc4C3=O)C(OC3C(N)CC(N)C(O)C3O)OC2C1O (stereo not shown) [ETH 103],"MIC, wild type bacteria",bacterial ribosomes,8.0 µg/mL
same,"MIC, bacteria with cytohybrid ribosome",cytohybrid ribosomes,>256.0 µg/mL
same,"MIC, bacteria with mitohybrid ribosome",mitohybrid ribosomes,>256.0 µg/mL
"CC(=O)O.CC(=O)O.CC(=O)O.CC(=O)O.CN1C(=O)OC2C3OC(OC4C(N)CC(N)C(O)C4O)C(N)CC3OC(OC3OC(CO)C(NC(=O)C(O)CCN)C(O)C3O)C21 [ETH 99, 7′-N,6′-O-Carbonyl-4″-N-[(2S)-4-amino-2-hydroxybutyryl]apramycin tetraacetate]","MIC, wild type bacteria",bacterial ribosomes,2.0 to 4.0 µg/mL
same,"MIC, bacteria with cytohybrid ribosome",cytohybrid ribosomes,>256.0 µg/mL
same,"MIC, bacteria with mitohybrid ribosome",mitohybrid ribosomes,>256.0 µg/mL
NC[C@@H]1O[C@H](O[C@H]2[C@@H](O)[C@H](O[C@@H]3[C@@H](O)[C@H](N)C[C@H](N)[C@H]3O[C@H]3O[C@H](CO)[C@@H](O)[C@H](O)[C@H]3N)O[C@@H]2CO)[C@H](N)[C@@H](O)[C@@H]1O [Paromomycin],MIC,"E. coli; Escherichia coli, E. coli AG01, clin. isol. (Gm^S), read-out: MIC",16 to 32 µg/mL
same,MIC,E. coli; [3],8 to 16 µg/mL
same,MIC,E. coli; [4],8 to 16 µg/mL
same,MIC,E. coli; [5],2 µg/mL
same,MIC,E. coli; [6],8 µg/mL
same,MIC,E. coli; [7],4 to 8 µg/mL
same,MIC,E. coli; [8],8 to 16 µg/mL
same,MIC,E. coli; [9],256 µg/mL
same,MIC,E. coli; [10],> 256 µg/mL
same,MIC,"[1]; MRSA AG040, strain 87-26S Gm^S",>256 mg/L
same,MIC,"[1]; MRSA AG046, strain 12-06R Gm^R",>256 mg/L
same,MIC,"[1]; MRSA AG047, strain 18-06R Gm^R",>256 mg/L
same,MIC,"[1]; MRSA AG048, strain 20-06R Gm^R",>256 mg/L
same,MIC,"[1]; MRSA AG049, strain 23-12R Gm^R",>256 mg/L
same,MIC,"[1]; MRSA AG050, strain 31-06R Gm^R",>256 mg/L
same,MIC,"[1]; MRSA AG051, strain 36-06R Gm^R",>256 mg/L
same,MIC,"[1]; MRSA AG052, strain 53-14I Gm^R",>256 mg/L
same,MIC,"[1]; Staphylococcus aureus, MRSA",> 256 mg/L
same,MIC,[1]; [11],2 to 4 mg/L
same,MIC,[1]; [12],4 mg/L
same,MIC,[1]; [13],4 to 8 mg/L
same,MIC,[1]; [14],2 to 4 mg/L
same,MIC,[1]; [15],4 mg/L
same,MIC,[1]; [16],2 to 4 mg/L
CN[C@@H]1[C@@H](O)[C@@H](O[C@@H]2[C@@H](O)[C@H](O[C@H]3OC(CN)=CC[C@H]3N)[C@@H](N)C[C@H]2N)OC[C@]1(C)O [Sisomicin],MIC,E. coli; [3],1 µg/mL
same,MIC,E. coli; [4],32 to 128 µg/mL
same,MIC,E. coli; [5],0.25 µg/mL
same,MIC,E. coli; [6],16 µg/mL
same,MIC,E. coli; [7],8 µg/mL
same,MIC,E. coli; [8],16 µg/mL
same,MIC,E. coli; [9],0.25 µg/mL
same,MIC,E. coli; [10],0.125 µg/mL
same,MIC,[1]; [11],0.25 mg/L
same,MIC,"[1]; Staphylococcus aureus, MRSA, MRSA AG040, strain 87-26S Gm^S",0.25 mg/L
same,MIC,[1]; [12],0.25 mg/L
same,MIC,"[1]; Staphylococcus aureus, MRSA, MRSA AG042, strain 101-06R Gm^R",32 mg/L
same,MIC,[1]; [13],32 to 64 mg/L
same,MIC,[1]; [14],8 mg/L
same,MIC,[1]; [15],4 to 8 mg/L
same,MIC,"[1]; Staphylococcus aureus, MRSA, MRSA AG046, strain 12-06R Gm^R",> 256 mg/L
same,MIC,"[1]; Staphylococcus aureus, MRSA, MRSA AG047, strain 18-06R Gm^R",> 256 mg/L
same,MIC,"[1]; Staphylococcus aureus, MRSA, MRSA AG048, strain 20-06R Gm^R",> 256 mg/L
same,MIC,"[1]; Staphylococcus aureus, MRSA, MRSA AG049, strain 23-12R Gm^R",8 mg/L
same,MIC,"[1]; Staphylococcus aureus, MRSA, MRSA AG050, strain 31-06R Gm^R",128 to 256 mg/L
same,MIC,"[1]; Staphylococcus aureus, MRSA, MRSA AG051, strain 36-06R Gm^R",64 mg/L
same,MIC,"[1]; Staphylococcus aureus, MRSA, MRSA AG052, strain 53-14I Gm^R",8 mg/L
same,MIC,[1]; [16],32 mg/L
Neomycin,"MIC, bacterial ribosomes","bacterial ribosomes; Table 7, 72 h incubation",1
same,MIC,"E. coli; E. coli AG01, clin. isol. (Gm^S)",8 to 16 µg/mL
same,MIC,"E. coli; E. coli AG02, clin. isol (Gm^S)",4 µg/mL
same,MIC,"E. coli; E. coli AG03, clin. isol (Gm^R)",4 µg/mL
same,MIC,"E. coli; E. coli AG06, BM13",1 µg/mL
same,MIC,"E. coli; E. coli AG07, BM13/pIP135, resistance mechanism AAC(3)",4 µg/mL
same,MIC,"E. coli; E. coli AG08, BM13/pIP055, resistance mechanism ANT(2″)",2 to 4 µg/mL
same,MIC,"E. coli; E. coli AG09, AAC(6′)-1B, resistance mechanism AAC(6′)",8 to 32 µg/mL
same,MIC,"E. coli; E. coli AG36, HB101/pAT197, resistance mechanism ANT(4′)",32 µg/mL
same,MIC,"E. coli; E. coli AG37, HB101/pAG21-1, resistance mechanism APH(3′)",>256 µg/mL
same,MIC,"[1]; MRSA AG038, strain 70-26S Gm^S",0.5 to 1 mg/L
same,MIC,"[1]; MRSA AG040, strain 87-26S Gm^S",128 mg/L
same,MIC,"[1]; MRSA AG041, strain 98-25S Gm^S",0.5 to 1 mg/L
same,MIC,"[1]; MRSA AG042, strain 101-06R Gm^R",128 mg/L
same,MIC,"[1]; MRSA AG043, strain 01-08R Gm^R",1 to 4 mg/L
same,MIC,"[1]; MRSA AG044, strain 07-12R Gm^R",0.5 to 1 mg/L
same,MIC,"[1]; MRSA AG045, strain 08-12R Gm^R",0.5 to 1 mg/L
same,MIC,"[1]; MRSA AG046, strain 12-06R Gm^R",>256 mg/L
same,MIC,"[1]; MRSA AG047, strain 18-06R Gm^R",256 mg/L
same,MIC,"[1]; MRSA AG048, strain 20-06R Gm^R",256 mg/L
same,MIC,"[1]; MRSA AG049, strain 23-12R Gm^R",>256 mg/L
same,MIC,"[1]; MRSA AG050, strain 31-06R Gm^R",64 mg/L
same,MIC,"[1]; MRSA AG051, strain 36-06R Gm^R",64 mg/L
same,MIC,"[1]; MRSA AG052, strain 53-14I Gm^R",>256 mg/L
same,MIC,"[1]; MRSA AG053, strain 56-06R Gm^R",0.5 to 1 mg/L
same,"MIC, cytohybrid ribosomes","cytohybrid ribosomes; Table 7, 72 h incubation",1024
same,Hair cell count,"[2]; 0.5 mM aminoglycoside for 24 h, epifluorescence microscopy",almost all hair cells (inner and outer) missing
same,inner and outer hair cells missing / lost,"[2]; 0.5 mM, FIG. 1",> 80%
same,"MIC, mitohybrid ribosomes","mitohybrid ribosomes; Table 7, 72 h incubation",32
"CC(=O)O.CC(=O)O.CC(=O)O.CC(=O)O.CN[C@@H]1[C@@H](O[C@H]2O[C@H](CO)[C@@H](N)[C@H](O)[C@H]2O)O[C@H]2C[C@@H](NC(=O)[C@@H](O)CCN)[C@@H](O[C@H]3[C@H](O)[C@@H](O)[C@H](N)C[C@@H]3N)O[C@@H]2[C@@H]1O [ETH 100, 2′-N-[(2S)-4-Amino-2-hydroxybutyryl]apramycin tetraacetate]","MIC, wild type bacteria",bacterial ribosomes,2.0 to 4.0 µg/mL
same,"MIC, bacteria with cytohybrid ribosome",cytohybrid ribosomes,>256.0 µg/mL
same,"MIC, bacteria with mitohybrid ribosome",mitohybrid ribosomes,>256.0 µg/mL
"CNC1C(OC2OC(CO)C(NC(=O)C(O)CCN)C(O)C2O)OC2CC(N)C(OC3C(N)CC(N)C(O)C3O)OC2C1O [ETH 105, 4″-N-[(2S)-4-Amino-2-hydroxybutyryl]apramycin]","MIC, wild type bacteria",bacterial ribosomes,4.0 µg/mL
same,"MIC, bacteria with cytohybrid ribosome",cytohybrid ribosomes,>256.0 µg/mL
same,"MIC, bacteria with mitohybrid ribosome",mitohybrid ribosomes,>256.0 µg/mL
"CC(=O)O.CC(=O)O.CC(=O)O.CC(=O)O.CNC1C(OC2OC(CO)C(N)C(O)C2O)OC2CC(N)C(OC3C(N)CC(NC(=O)C(O)CCN)C(O)C3O)OC2C1O [ETH 102, 1-N-[(2S)-4-Amino-2-hydroxybutyryl]apramycin tetraacetate]","MIC, wild type bacteria",bacterial ribosomes,4.0 µg/mL
same,"MIC, bacteria with cytohybrid ribosome",cytohybrid ribosomes,>256.0 µg/mL
same,"MIC, bacteria with mitohybrid ribosome",mitohybrid ribosomes,>256.0 µg/mL
